Laboratory results: patent US20250073249A1, “STEROID COMPOUND, AND PREPARATION METHOD THEREFOR AND USE THEREOF” (SHANGHAI INSTITUTE OF MATERIA MEDICA, CHINESE ACADEMY OF …, priority 2022, published 2025)

Experiments:
Assay type in all cases: cell-based
[1] = tested on: TMPRSS2; experiment: TMPRSS2 mRNA expression in A549 cells (qPCR)
[2] = biological target: T1, AR (Homo sapiens, UniProt P10275, T878A); experiment: In vitro AR degradation activity test in LNCaP cells (ELISA, OD450); conditions: LNCaP cells, 24 hours
T1 construct: endogenous in cells; host or cells: LNCaP
T1 sequence (P10275 1-920 T878A): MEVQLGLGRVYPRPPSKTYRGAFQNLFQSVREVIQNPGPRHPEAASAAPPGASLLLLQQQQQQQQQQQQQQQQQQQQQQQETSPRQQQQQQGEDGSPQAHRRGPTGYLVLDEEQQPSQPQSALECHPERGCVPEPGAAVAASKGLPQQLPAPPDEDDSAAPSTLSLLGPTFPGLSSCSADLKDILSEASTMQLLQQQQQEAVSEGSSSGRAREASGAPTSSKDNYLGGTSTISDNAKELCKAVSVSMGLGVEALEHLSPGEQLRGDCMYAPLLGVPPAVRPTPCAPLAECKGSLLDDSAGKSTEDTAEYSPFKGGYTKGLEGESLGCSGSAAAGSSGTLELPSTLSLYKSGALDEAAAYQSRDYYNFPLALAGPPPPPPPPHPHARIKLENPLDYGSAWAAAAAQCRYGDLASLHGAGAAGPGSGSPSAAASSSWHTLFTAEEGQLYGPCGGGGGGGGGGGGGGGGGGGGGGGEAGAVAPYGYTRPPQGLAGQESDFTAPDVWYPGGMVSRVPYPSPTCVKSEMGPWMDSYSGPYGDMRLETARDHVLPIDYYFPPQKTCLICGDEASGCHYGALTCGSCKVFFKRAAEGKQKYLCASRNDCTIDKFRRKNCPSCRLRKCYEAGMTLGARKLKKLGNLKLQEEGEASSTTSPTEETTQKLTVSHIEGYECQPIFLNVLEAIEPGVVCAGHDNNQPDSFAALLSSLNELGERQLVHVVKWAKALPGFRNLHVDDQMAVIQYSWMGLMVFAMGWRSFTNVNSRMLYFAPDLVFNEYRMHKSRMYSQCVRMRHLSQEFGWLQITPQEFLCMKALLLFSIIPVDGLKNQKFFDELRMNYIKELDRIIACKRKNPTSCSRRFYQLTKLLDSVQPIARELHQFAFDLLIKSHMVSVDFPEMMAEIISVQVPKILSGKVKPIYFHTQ
Protocol: The cells were then digested with trypsin and counted using an automated cell counter. The cell suspension was diluted to the desired density in growth medium. The cell suspension was then seeded into 96-well plates at 100 μL per well, and the plates were incubated at 37° C. with 5% CO2 for 24 hours. The compounds were then diluted 200-fold to the final concentration with DMSO or 3-fold to the final concentration with culture medium. 50 μL of compound solution was transferred to the 96-well plate and incubated at 37° C. for 24 hours. After 24 hours of incubation, the cell plate was washed 3 times with DPBS, 100 μL of 1× lysis buffer was added to each well, and placed on ice for 30 minutes. The supernatant was collected. The protein in the cell lysate samples was quantified and then diluted to the required concentration. 100 μL of cell lysate sample was added to the appropriate wells, sealed with tape and pressed firmly on top of the wells, and the plate was incubated at 37° C. for 2 hours. The plate contents were then discarded, and washed 4 times with 1× wash buffer, 200 μL per well each time. 100 μL of reconstituted detection antibody was then added, the plate was sealed with tape and incubated at 37° C. for 1 hour. The aspiration/wash step was then repeated, 100 μL of reconstituted HRP-Linked secondary antibody was added to each well, the plate was sealed with tape and incubated at 37° C. for 30 minutes. The aspiration/wash step was then repeated, 100 μL of substrate solution was added to each well and incubated at 37° C. for 10 minutes, and finally 100 μL of stop solution was added to each well. The plate was gently tapped to ensure thorough mixing, and the OD450 nm was recorded.
Degradation rate (%)=(OD450_max−OD450_sample)/(OD450_max−OD450_min)×100,plotted using GraphPad Prism 5 software, and IC50 is calculated using SPSS software.

[3] = tested on: ACE2; experiment: ACE2 mRNA expression in A549 cells (qPCR)
[4] = 10 μM, 1 nM DHT, 48 h, Blank = 1

C[C@]12CC[C@H](NC(=O)c3ccnnc3)CC1=CCC1C2CC[C@]2(C)C(n3cnc([N+](=O)[O-])c3)=CCC12 (some centres unmarked) [Compound 21]
Expression of TMPRSS2 protein, in words [1]: significantly downregulate | TMPRSS2 mRNA level [1, 4]: 0.196 | DC50 [2]: 3.31 µM | Expression of ACE2 protein, in words [3]: significantly downregulate | ACE2 mRNA level [3, 4]: 0.234
